# Assay results published in patent US9585846B2, “Anti-microbial composition” (Wild Child, priority 2007, dated 2017).
# Test system: S. aureus ATCC 6538P
# Assay: Agar plate test of cream against S. aureus (colonies recovered)
# Assay type: cell-based
# Conditions: farnesol when combined with cetrimide
# Protocol: A series of plates were then prepared containing an aliquot of sample (3) prepared in accordance with the preferred formula given above. The aliquot was suspended in tryptone soy agar. 1 g of the cream was emulsified into 5 mL of saline. A 2 mL aliquot was removed and serially diluted using saline. 6 mL of tryptone soy broth was then added to the suspensions. They were then added to 10 ml, of molten double strength tryptone soy agar and plate poured. Once cooled the plates were inoculated with 94 cfu of S. aureus ATCC 6538P. The plates were then incubated at 32° C. for 5 days. Following the incubation the number of colonies of S. aureus isolated was then determined.
structure (smiles),measurement,value
CC(C)=CCCC(C)=CCCC(C)=CCO [farnesol],Antimicrobial effect of the combination,synergistic antimicrobial effects
